Data from publication PMC6327986 (Journal of Enzyme Inhibition and Medicinal Chemistry, 2019).

Molecular target: hCA II (Homo sapiens, UniProt P00918)
Test: stopped-flow CO2 hydrase assay, hCA II inhibition
Format: biochemical
Details: ratio of Ki values versus 3b

[{(η^5-C5H4)–CH = N–N(H)C(O)–C6H4-4–SO2NH2}]Mn(CO)3 [2b]
fold more potent against hCA II than ferrocenyl derivative 3b: 8 fold

[{(η^5-C5H4)–CH = N–N(H)C(O)–CH2CH2–NH–C6H4-4–SO2NH2}]FeCp [3c]
fold potency decrease against hCA II when compared to 3b: 4.5 fold

[{(η^5-C5H4)–CH=N–N(H)C(O)–C6H4-4–SO2NH2}]Re(CO)3 [1b]
fold more potent against hCA II than ferrocenyl derivative 3b: 8 fold
